Legend:
Experiment in all cases: relative viability (nuclei count vs DMSO), 5 days (fraction); higher = more cells survive
H3255 = test system: H3255
Summary of the method: (§1)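 The day after seeding in 1536-well plates, lung cancer cell lines were treated by pin tool with a single drug, or with a fixed anchor-drug dose together with five library-drug doses (not always all listed) in √10 steps. After 5 days, a combined fix-and-stain solution (final 0.05% Triton X-100, 1% formaldehyde, 1 ug/ml Hoechst) was added. Nuclei counted on 4× images gave relative viability as treated counts over vehicle counts, reported as the median of duplicate plates.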

NCI-H650 = test system: NCI-H650
Summary of the method: as §1

HCC-78 = test system: HCC-78
Summary of the method: as §1

NCI-H460 = test system: NCI-H460
Summary of the method: as §1

PC-3 [JPC-3] = test system: PC-3 [JPC-3]
Summary of the method: as §1

201T = test system: 201T
Summary of the method: as §1

NCI-H1650 = test system: NCI-H1650
Summary of the method: as §1

NCI-H1651 = test system: NCI-H1651
Summary of the method: as §1

COR-L23 = test system: COR-L23
Summary of the method: as §1

NCI-H358 = test system: NCI-H358
Summary of the method: as §1

HCC-366 = test system: HCC-366
Summary of the method: as §1

NCI-H1793 = test system: NCI-H1793
Summary of the method: as §1

NCI-H596 = test system: NCI-H596
Summary of the method: as §1

NCI-H23 = test system: NCI-H23
Summary of the method: as §1

NCI-H3122 = test system: NCI-H3122
Summary of the method: as §1

NCI-H2085 = test system: NCI-H2085
Summary of the method: as §1

LU99A = test system: LU99A
Summary of the method: as §1

NCI-H322M = test system: NCI-H322M
Summary of the method: as §1

NCI-H522 = test system: NCI-H522
Summary of the method: as §1

NCI-H2087 = test system: NCI-H2087
Summary of the method: as §1

SK-LU-1 = test system: SK-LU-1
Summary of the method: as §1

HARA = test system: HARA
Summary of the method: as §1

NCI-H1755 = test system: NCI-H1755
Summary of the method: as §1

Cc1csc(=NC2CCCCC2)n1/N=C/c1ccc(O)c(O)c1O [MIM1] + Cc1nc(Nc2ncc(C(=O)Nc3c(C)cccc3Cl)s2)cc(N2CCN(CCO)CC2)n1 [Dasatinib] (partner 0.075 µM)
relative viability (H3255; first compound 0.2 µM): 0.339
relative viability (H3255; first compound 0.6325 µM): 0.343
relative viability (H3255; first compound 2 µM): 0.334
relative viability (H3255; first compound 6.325 µM): 0.344
relative viability (H3255; first compound 20 µM): 0.255
relative viability (NCI-H650; first compound 0.2 µM): 0.496
relative viability (NCI-H650; first compound 0.6325 µM): 0.435
relative viability (NCI-H650; first compound 2 µM): 0.459
relative viability (NCI-H650; first compound 6.325 µM): 0.416
relative viability (NCI-H650; first compound 20 µM): 0.301
relative viability (HCC-78; first compound 0.2 µM): 0.467
relative viability (HCC-78; first compound 0.6325 µM): 0.287
relative viability (HCC-78; first compound 2 µM): 0.435
relative viability (HCC-78; first compound 6.325 µM): 0.344
relative viability (HCC-78; first compound 20 µM): 0.487
relative viability (NCI-H460; first compound 0.2 µM): 0.508
relative viability (NCI-H460; first compound 0.6325 µM): 0.42
relative viability (NCI-H460; first compound 2 µM): 0.467
relative viability (NCI-H460; first compound 6.325 µM): 0.327
relative viability (NCI-H460; first compound 20 µM): 0.044
relative viability (PC-3 [JPC-3]; first compound 0.2 µM): 1.03
relative viability (PC-3 [JPC-3]; first compound 0.6325 µM): 0.976
relative viability (PC-3 [JPC-3]; first compound 2 µM): 0.981
relative viability (PC-3 [JPC-3]; first compound 6.325 µM): 0.904
relative viability (PC-3 [JPC-3]; first compound 20 µM): 0.582
relative viability (201T; first compound 0.2 µM): 0.612
relative viability (201T; first compound 0.6325 µM): 0.614
relative viability (201T; first compound 2 µM): 0.598
relative viability (201T; first compound 6.325 µM): 0.422
relative viability (201T; first compound 20 µM): 0.445
relative viability (NCI-H1650; first compound 0.2 µM): 0.304
relative viability (NCI-H1650; first compound 0.6325 µM): 0.316
relative viability (NCI-H1650; first compound 2 µM): 0.24
relative viability (NCI-H1650; first compound 6.325 µM): 0.186
relative viability (NCI-H1650; first compound 20 µM): 0.159
relative viability (NCI-H1651; first compound 0.2 µM): 0.509
relative viability (NCI-H1651; first compound 0.6325 µM): 0.464
relative viability (NCI-H1651; first compound 2 µM): 0.458
relative viability (NCI-H1651; first compound 6.325 µM): 0.282
relative viability (NCI-H1651; first compound 20 µM): 0.182
relative viability (COR-L23; first compound 0.2 µM): 0.449
relative viability (COR-L23; first compound 0.6325 µM): 0.552
relative viability (COR-L23; first compound 2 µM): 0.464
relative viability (COR-L23; first compound 6.325 µM): 0.327
relative viability (COR-L23; first compound 20 µM): 0.335
relative viability (NCI-H358; first compound 0.2 µM): 0.182
relative viability (NCI-H358; first compound 0.6325 µM): 0.174
relative viability (NCI-H358; first compound 2 µM): 0.179
relative viability (NCI-H358; first compound 6.325 µM): 0.173
relative viability (NCI-H358; first compound 20 µM): 0.126
relative viability (HCC-366; first compound 0.2 µM): 0.622
relative viability (HCC-366; first compound 2 µM): 0.65
relative viability (HCC-366; first compound 6.325 µM): 0.388
relative viability (HCC-366; first compound 20 µM): 0.0615
relative viability (NCI-H1793; first compound 0.2 µM): 0.417
relative viability (NCI-H1793; first compound 2 µM): 0.372
relative viability (NCI-H1793; first compound 6.325 µM): 0.359
relative viability (NCI-H1793; first compound 20 µM): 0.31
relative viability (NCI-H596; first compound 0.2 µM): 0.646
relative viability (NCI-H596; first compound 0.6325 µM): 0.651
relative viability (NCI-H596; first compound 2 µM): 0.546
relative viability (NCI-H596; first compound 6.325 µM): 0.61
relative viability (NCI-H596; first compound 20 µM): 0.597
relative viability (NCI-H23; first compound 0.2 µM): 0.826
relative viability (NCI-H23; first compound 2 µM): 0.684
relative viability (NCI-H23; first compound 6.325 µM): 0.471
relative viability (NCI-H23; first compound 20 µM): 0.246
relative viability (NCI-H3122; first compound 0.2 µM): 0.779
relative viability (NCI-H3122; first compound 0.6325 µM): 0.717
relative viability (NCI-H3122; first compound 2 µM): 0.882
relative viability (NCI-H3122; first compound 6.325 µM): 0.325
relative viability (NCI-H3122; first compound 20 µM): 0.122
relative viability (NCI-H2085; first compound 0.2 µM): 0.323
relative viability (NCI-H2085; first compound 0.6325 µM): 0.251
relative viability (NCI-H2085; first compound 2 µM): 0.261
relative viability (NCI-H2085; first compound 6.325 µM): 0.241
relative viability (NCI-H2085; first compound 20 µM): 0.253
relative viability (LU99A; first compound 0.2 µM): 0.752
relative viability (LU99A; first compound 0.6325 µM): 0.54
relative viability (LU99A; first compound 2 µM): 0.48
relative viability (LU99A; first compound 6.325 µM): 0.37
relative viability (LU99A; first compound 20 µM): 0.21
relative viability (NCI-H322M; first compound 0.2 µM): 0.265
relative viability (NCI-H322M; first compound 0.6325 µM): 0.245
relative viability (NCI-H322M; first compound 2 µM): 0.249
relative viability (NCI-H322M; first compound 6.325 µM): 0.27
relative viability (NCI-H322M; first compound 20 µM): 0.38
relative viability (NCI-H522; first compound 0.2 µM): 0.788
relative viability (NCI-H522; first compound 0.6325 µM): 0.698
relative viability (NCI-H522; first compound 2 µM): 0.93
relative viability (NCI-H522; first compound 6.325 µM): 0.743
relative viability (NCI-H522; first compound 20 µM): 0.585
relative viability (NCI-H2087; first compound 0.2 µM): 0.884
relative viability (NCI-H2087; first compound 0.6325 µM): 0.843
relative viability (NCI-H2087; first compound 2 µM): 1.02
relative viability (NCI-H2087; first compound 6.325 µM): 0.685
relative viability (NCI-H2087; first compound 20 µM): 0.625
relative viability (SK-LU-1; first compound 0.2 µM): 0.155
relative viability (SK-LU-1; first compound 0.6325 µM): 0.19
relative viability (SK-LU-1; first compound 2 µM): 0.189
relative viability (SK-LU-1; first compound 6.325 µM): 0.166
relative viability (SK-LU-1; first compound 20 µM): 0.235
relative viability (HARA; first compound 0.2 µM): 0.216
relative viability (HARA; first compound 2 µM): 0.228
relative viability (HARA; first compound 6.325 µM): 0.24
relative viability (HARA; first compound 20 µM): 0.181
relative viability (NCI-H1755; first compound 0.2 µM): 0.467
relative viability (NCI-H1755; first compound 0.6325 µM): 0.442
relative viability (NCI-H1755; first compound 2 µM): 0.424
relative viability (NCI-H1755; first compound 6.325 µM): 0.391
relative viability (NCI-H1755; first compound 20 µM): 0.23

— the supplement of paper PMC10307832
